The structures appear in SMILES notation.

We go through ten molecules from ChEMBL document CHEMBL5257136, “PROTAC Targeted Degradation of IRAK-4 as Potential Treatment in Cancer” (ACS Med Chem Lett, 2023).

Holding throughout (format): cell-based
Assay [1] deals with T1, Protein cereblon/Interleukin-1 receptor-associated kinase 4 (Homo sapiens) (UniProt Q9NWZ3+Q96SW2). As to the kind of experiment: Binding affinity to CRBN/IRAK4 in human PBMC cells assessed as inhibition of LPS-stimulated IL-6 production by measuring maximal efficacy incubated for 24 hrs by MSD analysis relative to control.
Assay [2] addresses T2, Protein cereblon/Interleukin-1 receptor-associated kinase 4 (Homo sapiens, UniProt Q96SW2+Q9NWZ3). As to the kind of experiment: Binding affinity to CRBN/IRAK4 in human PBMC cells assessed as inhibition of LPS-stimulated IL-6 production incubated for 24 hrs by MSD analysis.
Assay [3] has as its target T1, Protein cereblon/Interleukin-1 receptor-associated kinase 4 (Homo sapiens). The experiment in a line: Binding affinity to CRBN/IRAK4 in human PBMC cells assessed as inhibition of R848-stimulated IL-6 production by measuring maximal efficacy incubated for 24 hrs by MSD analysis relative to control.
For assay [4], the target named is T2, Protein cereblon/Interleukin-1 receptor-associated kinase 4. As to the kind of experiment: Binding affinity to CRBN/IRAK4 in human PBMC cells assessed as inhibition of R848-stimulated IL-6 production incubated for 24 hrs by MSD analysis.

T1 sequence (Q96SW2 whole entry, looked up): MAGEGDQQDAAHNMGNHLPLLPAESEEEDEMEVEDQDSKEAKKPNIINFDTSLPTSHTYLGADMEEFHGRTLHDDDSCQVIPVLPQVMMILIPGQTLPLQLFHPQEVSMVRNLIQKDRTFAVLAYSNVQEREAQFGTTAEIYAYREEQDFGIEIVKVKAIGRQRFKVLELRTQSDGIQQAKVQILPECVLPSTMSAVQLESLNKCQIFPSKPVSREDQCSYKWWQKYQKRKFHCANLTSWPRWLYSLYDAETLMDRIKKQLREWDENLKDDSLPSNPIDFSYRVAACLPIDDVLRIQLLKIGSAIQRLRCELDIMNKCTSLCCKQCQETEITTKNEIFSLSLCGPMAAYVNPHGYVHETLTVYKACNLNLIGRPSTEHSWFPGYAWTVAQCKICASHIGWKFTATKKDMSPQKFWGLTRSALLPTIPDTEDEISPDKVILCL
T1 sequence (Q9NWZ3 whole entry, looked up): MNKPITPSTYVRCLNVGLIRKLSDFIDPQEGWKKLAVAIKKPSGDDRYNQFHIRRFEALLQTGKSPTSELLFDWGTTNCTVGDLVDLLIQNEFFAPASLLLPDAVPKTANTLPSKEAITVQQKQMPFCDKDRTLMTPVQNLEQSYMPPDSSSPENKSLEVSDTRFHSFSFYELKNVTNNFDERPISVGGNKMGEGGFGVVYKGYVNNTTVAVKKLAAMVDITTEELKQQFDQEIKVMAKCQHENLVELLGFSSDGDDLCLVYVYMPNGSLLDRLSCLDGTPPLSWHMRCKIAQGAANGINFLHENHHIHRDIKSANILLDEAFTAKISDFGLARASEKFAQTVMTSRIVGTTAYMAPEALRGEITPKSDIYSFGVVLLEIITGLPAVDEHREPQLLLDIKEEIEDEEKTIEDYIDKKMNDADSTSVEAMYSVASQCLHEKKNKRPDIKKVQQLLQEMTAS
T2 sequence (Q9NWZ3 whole entry): as the sequence (Q9NWZ3 whole entry, looked up) above
T2 sequence (Q96SW2 whole entry): as the sequence (Q96SW2 whole entry, looked up) above

As to `O=C1CCC(N2Cc3c(ccc(N4CCC(CN5CCC(n6cc7cc(NC(=O)c8cnn9cccnc89)c(N8CCN(CC(F)F)CC8)cc7n6)CC5)CC4)c3F)C2=O)C(=O)N1` (stereo not given), the results for the Emax in assay [1] and in assay [3] were 80% and over 90%, respectively. The IC50 in assay [2] and in assay [4] was under 0.01 µM in each case.

In the case of `CC(C)Oc1cc2c(cc1NC(=O)c1cnn3cccnc13)CN(C1CCN(C(C)(C)C3CN(c4ccc5c(c4)C(=O)N(C4CCC(=O)NC4=O)C5=O)C3)CC1)C2=O` (stereo not given), the Emax in assay [1] and in assay [3] was over 90% in each case. Moreover, the IC50 in assay [2] and in assay [4] was at least 0.01 µM in each case.

For `O=C1CCC(N2Cc3ccc(N4CCC(CN5CCC(n6cc7cc(NC(=O)c8cnn9cccnc89)c(OCC8CC8)cc7n6)CC5)CC4)cc3C2=O)C(=O)N1` (stereo not given), the Emax (as a rule, the size of the effect at its maximum, as opposed to the concentration needed) is 80% in assay [1] and over 90% in assay [3]. Moreover, the IC50 in assay [2] and in assay [4] was under 0.01 µM each time.

In the case of `CC(C)Oc1cc2c(cc1NC(=O)c1cnn3cccnc13)CN(C1CCN(CC3(F)CN(c4ccc5c(c4F)CN(C4CCC(=O)NC4=O)C5=O)C3)CC1)C2=O` (stereo not given), the Emax in assay [1] and in assay [3] was over 90% throughout. Further, the IC50 (as a rule, the midpoint of a concentration-inhibition curve) is at least 0.01 µM in assay [2] and at least 0.05 µM in assay [4].

Regarding `O=C1CCC(N2Cc3cc(N4CCC(CN5CCC(N6Cc7cc(NC(=O)c8cnn9cccnc89)c(N8CCC(N9CCC9)CC8)cc7C6=O)CC5)CC4)ccc3C2=O)C(=O)N1` (stereo not given), the Emax in assay [1] and in assay [3] was over 90% each time. The IC50 in assay [2] and in assay [4] was under 0.01 µM each time.

As for `O=C1CCC(N2C(=O)c3ccc(N4CCC(CN5CCC(N6Cc7cc(NC(=O)c8cnn9cccnc89)c(N8CCN(CC(F)F)CC8)cc7C6=O)CC5)CC4)cc3C2=O)C(=O)N1` (stereo not given), the Emax in assay [1] and in assay [3] was 80% each time. In addition, the IC50 in assay [2] and in assay [4] was at least 0.01 µM each time.

Regarding `O=C1CCC(N2Cc3ccc(N4CCC(CN5CCC(N6Cc7cc(NC(=O)c8cnn9cccnc89)c(N8CCC(N9CCC9)CC8)cc7C6=O)CC5)CC4)cc3C2=O)C(=O)N1` (stereo not given), the Emax in assay [1] and in assay [3] was over 90% each time. For the same molecule, the IC50 in assay [2] and in assay [4] was under 0.01 µM each time.

With `O=C1CCC(N2Cc3ccc(N4CC(F)(CN5CCC(N6Cc7cc(NC(=O)c8cnn9cccnc89)c(N8CCC(N9CCC9)CC8)cc7C6=O)CC5)C4)cc3C2=O)C(=O)N1` (stereo not given), the results for the Emax in assay [1] and in assay [3] were 80% and over 90%, respectively. For the same molecule, the IC50 in assay [2] and in assay [4] was under 0.01 µM throughout.

For `O=C1CCC(N2Cc3cc(N4CCC(CN5CCC(n6cc7cc(NC(=O)c8cnn9cccnc89)c(OCC(F)F)cc7n6)CC5)CC4)ccc3C2=O)C(=O)N1` (stereo not given), the Emax in assay [1] was 70%; in assay [3], over 90%. Also, the results for the IC50 in assay [2] and in assay [4] were at least 0.01 µM and under 0.01 µM, respectively.

`CC(C)Oc1cc2c(cc1NC(=O)c1cnn3cccnc13)CN(C1CCN(CC3CCN(c4ccc5c(c4)C(=O)N(C4CCC(=O)NC4=O)C5=O)CC3)CC1)C2=O` (stereo not given): the maximal response (Emax) in assay [1] is 80%; in assay [3], over 90%. The IC50 in assay [2] and in assay [4] was under 0.01 µM throughout.
